Data as given in patent publication US20260076372A1, “SPRAYABLE ANTIFUNGAL COMPOSITION FOR USE IN THE FIELD OF AGRICULTURE, AND ASSOCIATED METHOD AND USE” (GAIAGO, priority 2022, published 2026).

Legend:
Alternaria solani = assay: in vitro 96-well micro-titration test on Alternaria solani spores; type: cell-based
Fusarium graminearum = assay: microbe, parasite or virus in culture; type: cell-based
[1] = tested on: Septoria tritici (Zymoseptoria tritici); assay: in vitro 96-well micro-titration test on Septoria tritici / Zymoseptoria tritici; type: cell-based
Pythium ultimum = assay: in vitro test on P. ultimum
Method: The evaluations were performed with a 96-well micro-titration test to evaluate the in vitro fungicidal activity of each solution.
Three repetitions (wells) were carried out. The value of the concentration making it possible to inhibit the growth of each pathogen (EC50) to 50% was determined using the optical density measurement.

Plasmopara viticola = assay: in vitro antifungal action of single ingredients on Plasmopara viticola; type: cell-based
Source text: In Vitro Results Showing the Syngergistic Action of Yucca Juice with the Other Compounds of the Composition According to the Invention on A. solani, Z. tritici, and Plasmopara viticola,
The following tables show in vitro the synergistic antifungal action between yucca juice and the other compounds of the composition of the invention on various pathogens. The concentrations given are as a mass %. The solutions tested as aqueous solutions.
Mo denotes sodium molybdate, Bo denotes boron ethanolamine.

C[C@@H]1CC[C@@]2(OC1)O[C@H]1C[C@H]3[C@@H]4CC[C@@H]5C[C@@H](O)CC[C@]5(C)[C@H]4CC[C@]3(C)[C@H]1[C@@H]2C [smilagenin, (25R)-5beta-Spirostan-3beta-ol]
inhibition (%) of A. solani growth (Alternaria solani; 0.0064 μg/ml or ppm in water): 7.9%
inhibition (%) of A. solani growth (Alternaria solani; 0.032 μg/ml or ppm in water): 10.1%
inhibition (%) of A. solani growth (Alternaria solani; 0.16 μg/ml or ppm in water): 19.6%
inhibition (%) of A. solani growth (Alternaria solani; 0.8 μg/ml or ppm in water): 22.6%
inhibition (%) of A. solani growth (Alternaria solani; 4 μg/ml or ppm in water): 28.0%
inhibition (%) of A. solani growth (Alternaria solani; 20 μg/ml or ppm in water): 29.3%
inhibition (%) of A. solani growth (Alternaria solani; 40 μg/ml or ppm in water): 30%
inhibition of Fusarium graminearum (Fusarium graminearum; 0.0064 μg/ml or ppm): 5.00%
inhibition of Fusarium graminearum (Fusarium graminearum; 0.032 μg/ml or ppm): −2.60%
inhibition of Fusarium graminearum (Fusarium graminearum; 0.16 μg/ml or ppm): −0.80%
inhibition of Fusarium graminearum (Fusarium graminearum; 0.8 μg/ml or ppm): 2.40%
inhibition of Fusarium graminearum (Fusarium graminearum; 4 μg/ml or ppm): 1.50%
inhibition of Fusarium graminearum (Fusarium graminearum; 20 μg/ml or ppm): −8.70%
inhibition of Fusarium graminearum (Fusarium graminearum; 100 μg/ml or ppm): 2.00%
EC95 (μg/ml or ppm) (Fusarium graminearum; Fusarium graminearum, Table 9): >100 μg/ml or ppm
EC50 (Fusarium graminearum; Fusarium graminearum, read-out: EC50 (μg/ml or ppm)): > 100 µg/mL
% inhibition of pathogen growth (S. tritici) ([1]; 0.0064 μg/ml or ppm): −3.90%
% inhibition of pathogen growth (S. tritici) ([1]; 0.032 μg/ml or ppm): −2.30%
% inhibition of pathogen growth (S. tritici) ([1]; 0.16 μg/ml or ppm): −1.90%
% inhibition of pathogen growth (S. tritici) ([1]; 0.8 μg/ml or ppm): −9.50%
% inhibition of pathogen growth (S. tritici) ([1]; 4 μg/ml or ppm): 0.00%
% inhibition of pathogen growth (S. tritici) ([1]; 20 μg/ml or ppm): −2.10%
% inhibition of pathogen growth (S. tritici) ([1]; 100 μg/ml or ppm): −0.20%
EC50 ([1]; Zymoseptoria tritici, S. tritici, Table 12, read-out: EC50 (μg/ml or ppm)): > 100 µg/mL
inhibition of P. ultimum (Pythium ultimum; 0.0064 μg/ml or ppm): −6.70%
inhibition of P. ultimum (Pythium ultimum; 0.032 μg/ml or ppm): 0.00%
inhibition of P. ultimum (Pythium ultimum; 0.16 μg/ml or ppm): −0.60%
inhibition of P. ultimum (Pythium ultimum; 0.8 μg/ml or ppm): 0.10%
inhibition of P. ultimum (Pythium ultimum; 4 μg/ml or ppm): −3.40%
inhibition of P. ultimum (Pythium ultimum; 20 μg/ml or ppm): −0.10%
inhibition of P. ultimum (Pythium ultimum; 100 μg/ml or ppm): 0.00%
EC50 (Pythium ultimum; Globisporangium ultimum, read-out: EC50 (μg/ml or ppm)): > 100 µg/mL
EC95 (μg/ml or ppm) (Pythium ultimum; P. ultimum, Table 14): >100 μg/ml or ppm

O=S(=O)([O-])[O-].[Mg+2] [Mg 0.5%]
EC95 (%) (Alternaria solani; A. solani, Table 22, ingredient alone in water): >10%
inhibition of A. solani, ingredient alone in water (Alternaria solani; Concentration 0.05% mass of the stated aqueous solution): −1.2%
inhibition of A. solani, ingredient alone in water (Alternaria solani; Concentration 0.50%): −8.0%
inhibition of A. solani, ingredient alone in water (Alternaria solani; Concentration 1.00%): −2.2%
inhibition of A. solani, ingredient alone in water (Alternaria solani; Concentration 2.00%): −1.8%
inhibition of A. solani, ingredient alone in water (Alternaria solani; Concentration 3.00%): −1.3%
inhibition of A. solani, ingredient alone in water (Alternaria solani; Concentration 6.00%): −2.5%
inhibition of A. solani, ingredient alone in water (Alternaria solani; Concentration 10.00%): −2.4%
inhibition of Z. tritici, ingredient alone in water ([1]; Concentration 0.05%): 0.7%
inhibition of Z. tritici, ingredient alone in water ([1]; Concentration 0.50%): 0.9%
inhibition of Z. tritici, ingredient alone in water ([1]; Concentration 1.00%): 2.3%
inhibition of Z. tritici, ingredient alone in water ([1]; Concentration 2.00%): −2.9%
inhibition of Z. tritici, ingredient alone in water ([1]; Concentration 3.00%): −0.1%
inhibition of Z. tritici, ingredient alone in water ([1]; Concentration 6.00%): 11.3%
EC95 (%) ([1]; Z. tritici, Table 23, ingredient alone in water): >10%
in vitro activity against Plasmopara viticola, ingredient alone in water (Plasmopara viticola; Concentration 0.05%): 13.88%
in vitro activity against Plasmopara viticola, ingredient alone in water (Plasmopara viticola; Concentration 0.50%): 43.93%
in vitro activity against Plasmopara viticola, ingredient alone in water (Plasmopara viticola; Concentration 1.00%): 53.33%
in vitro activity against Plasmopara viticola, ingredient alone in water (Plasmopara viticola; Concentration 2.00%): 69.80%
in vitro activity against Plasmopara viticola, ingredient alone in water (Plasmopara viticola; Concentration 3.00%): 76.51%
in vitro activity against Plasmopara viticola, ingredient alone in water (Plasmopara viticola; Concentration 6.00%): 91.75%
in vitro activity against Plasmopara viticola, ingredient alone in water (Plasmopara viticola; Concentration 10.00%): 95.94%
